Reference: patent US9855345B2, “Method for producing lipoplex for topical administration and antitumor agent using such lipoplex” (DELTA-FLY PHARMA, INC., priority 2014, dated 2018)
“Also recorded” adds a separate entry of the source.

Assays:
[1] = tested on: Luciferase-expressing human pancreatic cancer cells PANC-1; assay: Therapeutic effect on peritoneal dissemination of pancreatic cancer (IVIS luciferase activity, survival); assay type: in vivo, BALB/c nu/nu mice; details: PANC-1-luc model, lipoplex i.p. 20 μg TS-shRNA/mouse, Paclitaxel i.p. 10 mg/kg, days 8, 11, 14, 17, IVIS days 7-25
Method: The therapeutic effects of the TS-shRNA-carrying lipoplex (i.e., novel preparation (2)) prepared in the same manner as in Example 1 on peritoneal dissemination of pancreatic cancer were evaluated.
Luciferase-expressing human pancreatic cancer cells PANC-1 (PANC-1-luc, Pharmaron) were cultured and transplanted intraperitoneally into BALB/c nu/nu mice (6- to 8-week-old, female, Beijing HFK Bio-Technology Co., Ltd.) at 1.0×10^7 cells/mouse to prepare mouse models for peritoneal dissemination of PANC-1-luc.
In Example 7, the lipoplex (novel preparation (2)), Paclitaxel (Taxol, Pharmaron), or the lipoplex (novel preparation (2)) in combination with Paclitaxel was administered to different mouse models. A 9% sucrose solution was administered to the control group.
The lipoplex (novel preparation (2)) was administered intraperitoneally to mouse models in such a manner that 20 μg of TS-shRNA would be administered to each mouse per day, and such administration was carried out four times in total (i.e., 8, 11, 14, and 17 days after the cell transplantation). Paclitaxel was administered intraperitoneally to the relevant group of mouse models four times in total (i.e., 8, 11, 14, and 17 days after the cell transplantation) at 10 mg/kg. […]

[2] = TS-shRNA concentration in ascites and blood by RT-PCR after intraperitoneal lipoplex administration; assay type: in vivo, BALB/c nu/nu mice; details: after i.p. administration of lipoplex (novel preparation (2)), ovarian cancer peritoneal metastasis mouse model

| Compound | increase in luciferase activity (tumor growth in the abdominal cavity) compared with the control group [1] | half-life of TS-shRNA in the ascites [2] | leakage of TS-shRNA into the blood [2] |
| --- | --- | --- | --- |
| CC(=O)O[C@H]1C(=O)[C@@]2(C)[C@H]([C@H](OC(=O)c3ccccc3)[C@]3(O)C[C@H](OC(=O)[C@H](O)[C@@H](NC(=O)c4ccccc4)c4ccccc4)C(C)=C1C3(C)C)[C@]1(OC(C)=O)CO[C@@H]1C[C@@H]2O [Paclitaxel] | suppressed; also recorded: strong tumor suppression effects |  |  |
| TS-shRNA: TS-targeting shRNA, SEQ ID NO: 8, 5′-GUAACACCAUCGAUCAUGAUAGUGCUCCUGGUUGUCAUGAUCGAUGGUGUUACUU-3′ (shRNA hairpin in lipoplex, chemistry not given here) |  | approximately 8 hours | had not leaked |
